Measurements: ChEMBL document CHEMBL2157957, “Strategies to mitigate the bioactivation of 2-anilino-7-aryl-pyrrolo[2,1-f][1,2,4]triazines: identification of orally bioavailable, efficacious ALK inhibitors” (J Med Chem, 2012)

Tests used:
Mus musculus [1] = assay: Toxicity in human SUP-M2 cells xenografted SCID mouse assessed as incidence of overt toxicity at 55 mg/kg, po BID measured 12 days post dose; assay type: organism-based; set-up: dose 55 mg/kg, route oral; details: in vivo, 288 h
[2] = Tmax in SCID mouse at 10 mg/kg, po; assay type: ADME, organism-based; set-up: dose 10 mg/kg, route oral; details: in vivo
[3] = target: ALK tyrosine kinase receptor (Homo sapiens, UniProt Q9UM73); assay: Inhibition of GST-tagged human ALK cytoplasmic domain (1058-1620) expressed in Sf21 insect cells using GST-tagged human recombinant PLC-gamma/substrate by ELISA
[4] = Tmax in Sprague-Dawley rat at 5 mg/kg, po; assay type: ADME, organism-based; set-up: dose 5 mg/kg, route oral; details: in vivo
[5] = Clearance in Sprague-Dawley rat at 1 mg/kg, iv; assay type: ADME, organism-based; set-up: dose 1 mg/kg, route intravenous; details: in vivo
[6] = Half life in human liver microsomes at 0.5 uM preincubated for 10 mins before NADPH and UDPGA challenge; assay type: ADME, Microsome
Mus musculus [7] = assay: Toxicity in human SUP-M2 cells xenografted SCID mouse assessed as incidence of overt toxicity at 30 mg/kg, po BID measured 12 days post dose; assay type: organism-based; set-up: dose 30 mg/kg, route oral; details: in vivo, 288 h
[8] = Half life in Sprague-Dawley rat at 1 mg/kg, iv; assay type: ADME, organism-based; set-up: dose 1 mg/kg, route intravenous; details: in vivo
[9] = Oral bioavailability in SCID mouse at 10 mg/kg; assay type: ADME, organism-based; details: in vivo
[10] = Volume of distribution in SCID mouse at 1 mg/kg, iv; assay type: ADME, organism-based; set-up: dose 1 mg/kg, route intravenous; details: in vivo
[11] = Cmax in SCID mouse at 10 mg/kg, po; assay type: ADME, organism-based; set-up: dose 10 mg/kg, route oral; details: in vivo
[12] = Oral bioavailability in Sprague-Dawley rat at 5 mg/kg; assay type: ADME, organism-based; details: in vivo
Plasma = assay: Ratio of plasma concentration at 12 hrs to plasma concentration at 24 hrs in human SUP-M2 cells xenografted SCID mouse at 30 mg/kg, po administered as single dose; assay type: ADME, organism-based; set-up: dose 30 mg/kg, route oral; details: in vivo
[13] = AUC (0 to t) in SCID mouse at 1 mg/kg, iv; assay type: ADME, organism-based; set-up: dose 1 mg/kg, route intravenous; details: plasma
[14] = Half life in Sprague-Dawley rat liver microsomes at 0.5 uM preincubated for 10 mins before NADPH and UDPGA challenge; assay type: ADME, Microsome
Insulin receptor = Insulin receptor (Homo sapiens, UniProt P06213); assay: Inhibition of IR
[15] = AUC (0 to t) in Sprague-Dawley rat at 1 mg/kg, iv; assay type: ADME, organism-based; set-up: dose 1 mg/kg, route intravenous; details: plasma
[16] = Half life in SCID mouse at 1 mg/kg, iv; assay type: ADME, organism-based; set-up: dose 1 mg/kg, route intravenous; details: in vivo
[17] = Volume of distribution in Sprague-Dawley rat at 1 mg/kg, iv; assay type: ADME, organism-based; set-up: dose 1 mg/kg, route intravenous; details: in vivo
[18] = target: NPM/ALK (Nucleophosmin/ALK tyrosine kinase receptor) (Homo sapiens, UniProt Q9UM73); assay: Inhibition of human NPM-ALK phosphorylation using 4-MeUP substrate by cell based assay
[19] = Half life in monkey liver microsomes at 0.5 uM preincubated for 10 mins before NADPH and UDPGA challenge; assay type: ADME, Macaca mulatta, Microsome; details: rhesus monkey
Mus musculus [20] = assay: Inhibition of NPM-ALK phosphorylation in human SUP-M2 cells xenografted in SCID mouse at 30 mg/kg, po administered as single dose measured 12 hrs post dose; assay type: functional; details: SUP-M2, 12 h
[21] = Plasma concentration in human SUP-M2 cells xenografted SCID mouse at 30 mg/kg, po administered as single dose measured 12 hrs post dose; assay type: ADME, organism-based; set-up: dose 30 mg/kg, route oral
[22] = Half life in SCID mouse at 10 mg/kg, po; assay type: ADME, organism-based; set-up: dose 10 mg/kg, route oral; details: in vivo
[23] = AUC (0 to t) in Sprague-Dawley rat at 5 mg/kg, po; assay type: ADME, organism-based; set-up: dose 5 mg/kg, route oral; details: plasma
[24] = AUC (0 to t) in SCID mouse at 10 mg/kg, po; assay type: ADME, organism-based; set-up: dose 10 mg/kg, route oral; details: plasma
[25] = Half life in CD1 mouse liver microsomes at 0.5 uM preincubated for 10 mins before NADPH and UDPGA challenge; assay type: ADME, Microsome
Mus musculus [26] = assay: Toxicity in human SUP-M2 cells xenografted SCID mouse assessed as body weight loss at 55 mg/kg, po BID measured 12 days post dose; assay type: organism-based; set-up: dose 55 mg/kg, route oral; details: in vivo, 288 h
[27] = Cmax in Sprague-Dawley rat at 5 mg/kg, po; assay type: ADME, organism-based; set-up: dose 5 mg/kg, route oral; details: in vivo
[28] = Ratio of tumor concentration at 12 hrs to plasma concentration at 12 hrs in human SUP-M2 cells xenografted SCID mouse at 30 mg/kg, po administered as single dose; assay type: ADME, organism-based; set-up: dose 30 mg/kg, route oral
Mus musculus [29] = assay: Toxicity in human SUP-M2 cells xenografted SCID mouse assessed as body weight loss at 30 mg/kg, po BID measured 12 days post dose; assay type: organism-based; set-up: dose 30 mg/kg, route oral; details: in vivo, 288 h
[30] = Clearance in SCID mouse at 1 mg/kg, iv; assay type: ADME, organism-based; set-up: dose 1 mg/kg, route intravenous; details: in vivo

Sequence of Insulin receptor (P06213 28-758 limits assumed): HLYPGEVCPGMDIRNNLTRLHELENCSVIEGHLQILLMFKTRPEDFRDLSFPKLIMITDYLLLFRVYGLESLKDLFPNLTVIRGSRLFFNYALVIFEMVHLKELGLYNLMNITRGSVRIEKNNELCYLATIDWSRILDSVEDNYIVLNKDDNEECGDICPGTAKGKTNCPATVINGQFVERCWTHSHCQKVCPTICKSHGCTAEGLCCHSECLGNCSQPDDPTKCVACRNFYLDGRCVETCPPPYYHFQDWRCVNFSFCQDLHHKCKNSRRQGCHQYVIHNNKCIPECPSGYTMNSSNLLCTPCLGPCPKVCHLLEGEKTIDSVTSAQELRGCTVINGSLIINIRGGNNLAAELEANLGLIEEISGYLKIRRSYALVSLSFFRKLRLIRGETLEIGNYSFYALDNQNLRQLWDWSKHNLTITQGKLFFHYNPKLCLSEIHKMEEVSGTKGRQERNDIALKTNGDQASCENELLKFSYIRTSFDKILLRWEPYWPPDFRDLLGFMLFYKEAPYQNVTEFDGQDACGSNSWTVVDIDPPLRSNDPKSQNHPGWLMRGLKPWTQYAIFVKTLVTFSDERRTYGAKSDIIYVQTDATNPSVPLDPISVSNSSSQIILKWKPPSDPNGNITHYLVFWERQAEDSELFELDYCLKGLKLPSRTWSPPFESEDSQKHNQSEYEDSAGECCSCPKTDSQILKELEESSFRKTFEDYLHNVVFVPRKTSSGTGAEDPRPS
Sequence of Insulin receptor (P06213 763-1382 limits assumed): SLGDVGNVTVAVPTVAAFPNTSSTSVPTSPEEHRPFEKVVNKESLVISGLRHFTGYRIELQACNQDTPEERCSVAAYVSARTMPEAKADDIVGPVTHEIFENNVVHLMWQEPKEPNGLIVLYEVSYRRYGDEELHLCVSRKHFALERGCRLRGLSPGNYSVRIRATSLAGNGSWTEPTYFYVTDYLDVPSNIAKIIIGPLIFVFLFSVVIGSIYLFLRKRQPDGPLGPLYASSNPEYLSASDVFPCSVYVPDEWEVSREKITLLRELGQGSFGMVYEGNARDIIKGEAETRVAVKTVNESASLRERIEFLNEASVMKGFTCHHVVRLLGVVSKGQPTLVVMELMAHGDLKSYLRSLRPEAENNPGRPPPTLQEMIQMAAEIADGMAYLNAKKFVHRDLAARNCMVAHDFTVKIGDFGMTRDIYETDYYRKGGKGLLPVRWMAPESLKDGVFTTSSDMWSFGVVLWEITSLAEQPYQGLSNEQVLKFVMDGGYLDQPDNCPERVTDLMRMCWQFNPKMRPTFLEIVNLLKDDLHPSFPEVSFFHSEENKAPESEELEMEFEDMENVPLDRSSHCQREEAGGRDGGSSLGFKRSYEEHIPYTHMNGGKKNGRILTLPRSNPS
Sequence of NPM/ALK (Nucleophosmin/ALK tyrosine kinase receptor) (Q9UM73 whole entry): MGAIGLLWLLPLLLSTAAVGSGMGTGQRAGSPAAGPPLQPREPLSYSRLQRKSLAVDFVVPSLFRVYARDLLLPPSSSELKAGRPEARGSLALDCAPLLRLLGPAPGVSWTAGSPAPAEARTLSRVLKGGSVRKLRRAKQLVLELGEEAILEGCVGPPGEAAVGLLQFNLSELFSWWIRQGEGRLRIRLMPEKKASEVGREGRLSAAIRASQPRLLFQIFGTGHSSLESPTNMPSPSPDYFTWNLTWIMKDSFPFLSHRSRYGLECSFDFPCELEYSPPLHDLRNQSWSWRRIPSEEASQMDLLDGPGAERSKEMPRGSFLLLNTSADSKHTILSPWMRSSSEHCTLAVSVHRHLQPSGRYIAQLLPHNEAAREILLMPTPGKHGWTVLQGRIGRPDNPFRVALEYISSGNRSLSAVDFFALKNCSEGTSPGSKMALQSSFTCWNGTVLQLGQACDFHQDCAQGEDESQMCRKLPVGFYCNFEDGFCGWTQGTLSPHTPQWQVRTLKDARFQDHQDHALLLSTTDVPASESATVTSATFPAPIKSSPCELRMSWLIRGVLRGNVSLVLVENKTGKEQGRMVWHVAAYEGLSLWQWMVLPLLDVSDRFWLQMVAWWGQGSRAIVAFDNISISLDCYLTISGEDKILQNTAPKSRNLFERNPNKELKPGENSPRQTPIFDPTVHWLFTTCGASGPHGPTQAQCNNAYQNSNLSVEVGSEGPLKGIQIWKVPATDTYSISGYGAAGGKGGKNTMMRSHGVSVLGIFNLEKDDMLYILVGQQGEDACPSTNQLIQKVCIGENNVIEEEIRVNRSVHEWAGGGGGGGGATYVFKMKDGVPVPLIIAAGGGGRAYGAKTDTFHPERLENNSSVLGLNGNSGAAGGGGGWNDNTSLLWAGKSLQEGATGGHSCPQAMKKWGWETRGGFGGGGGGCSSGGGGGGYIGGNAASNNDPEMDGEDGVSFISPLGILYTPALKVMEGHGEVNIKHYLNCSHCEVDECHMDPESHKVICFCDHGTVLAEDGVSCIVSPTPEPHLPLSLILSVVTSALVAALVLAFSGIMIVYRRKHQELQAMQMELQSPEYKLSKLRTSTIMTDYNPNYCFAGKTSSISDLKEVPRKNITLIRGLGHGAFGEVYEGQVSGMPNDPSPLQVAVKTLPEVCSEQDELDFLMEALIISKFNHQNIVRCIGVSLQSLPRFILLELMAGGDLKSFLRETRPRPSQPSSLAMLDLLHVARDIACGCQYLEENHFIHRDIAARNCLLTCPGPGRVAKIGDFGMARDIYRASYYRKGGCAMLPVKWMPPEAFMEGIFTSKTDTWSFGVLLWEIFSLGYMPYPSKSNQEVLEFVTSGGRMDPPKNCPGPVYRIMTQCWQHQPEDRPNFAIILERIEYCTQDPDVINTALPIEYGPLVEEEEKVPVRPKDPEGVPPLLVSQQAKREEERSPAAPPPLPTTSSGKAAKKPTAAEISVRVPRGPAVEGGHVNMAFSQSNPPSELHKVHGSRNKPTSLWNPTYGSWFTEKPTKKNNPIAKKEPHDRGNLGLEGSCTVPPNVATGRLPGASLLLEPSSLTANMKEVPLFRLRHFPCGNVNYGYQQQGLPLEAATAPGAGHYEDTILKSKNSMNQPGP
Sequence of NPM/ALK (Nucleophosmin/ALK tyrosine kinase receptor) (P06748 whole entry, further chain): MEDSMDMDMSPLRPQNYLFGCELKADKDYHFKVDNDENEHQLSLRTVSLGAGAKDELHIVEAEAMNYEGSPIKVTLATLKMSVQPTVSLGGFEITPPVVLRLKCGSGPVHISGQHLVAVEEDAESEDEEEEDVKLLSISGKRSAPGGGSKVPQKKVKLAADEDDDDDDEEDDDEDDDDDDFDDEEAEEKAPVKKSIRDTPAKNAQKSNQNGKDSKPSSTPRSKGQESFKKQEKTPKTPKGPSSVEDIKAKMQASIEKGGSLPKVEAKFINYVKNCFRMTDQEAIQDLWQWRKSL
Sequence of ALK tyrosine kinase receptor (Q9UM73 whole entry, the tested form may be a part): as the sequence (Q9UM73 whole entry) above

COc1cc(C2CCN(CC(N)=O)CC2)ccc1Nc1ncc2ccc(-c3ccccc3OC)n2n1
Activity (Mus musculus [1]): Non-toxic
Tmax [2]: 120 min
IC50 [3]: 6 nM
Tmax [4]: 360 min
clearance [5]: 12 mL/min/kg
half-life at 0.5 µM [6]: > 40 min
Activity (Mus musculus [7]): Non-toxic
half-life [8]: 204 min
bioavailability [9]: 56%
Vd [10]: 1.1 L/kg
Cmax [11]: 3470 ng/mL
bioavailability [12]: 43%
Ratio (Plasma): 7
AUC(0-t) [13]: 7550 ng·h/mL
half-life at 0.5 µM [14]: > 40 min
IC50 (Insulin receptor): 222 nM
AUC(0-t) [15]: 1110 ng·h/mL
half-life [16]: 360 min
Vd [17]: 3.5 L/kg
IC50 [18]: 100 nM
half-life at 0.5 µM [19]: > 40 min
inhibition in vivo at 30 mg/kg (Mus musculus [20]): 80%
concentration at 12 h [21]: 6 µM
half-life [22]: 264 min
AUC(0-t) [23]: 1760 ng·h/mL
AUC(0-t) [24]: 42500 ng·h/mL
half-life at 0.5 µM [25]: > 40 min
Activity (Mus musculus [26]): Non-toxic
Cmax [27]: 392 ng/mL
Kp at 12 h [28]: 2
Activity (Mus musculus [29]): Non-toxic
clearance [30]: 2 mL/min/kg

CNC(=O)CN1CCC(c2ccc(Nc3ncc4ccc(-c5ccccc5OC)n4n3)c(OC)c2)CC1
IC50 [3]: 10 nM
half-life at 0.5 µM [6]: < 12 min
IC50 (Insulin receptor): 161 nM
IC50 [18]: 100 nM
half-life at 0.5 µM [19]: < 12 min

COc1ccc(-c2ccc3cnc(Nc4ccc(C5CCN(CC(N)=O)CC5)cc4OC)nn23)c(OC)c1
IC50 [3]: 12 nM
IC50 (Insulin receptor): 2970 nM
IC50 [18]: 500 nM

COc1cc(C2CCN(CC(N)=O)CC2)ccc1Nc1ncc2ccc(-c3ccccc3C#N)n2n1
IC50 [3]: 19 nM
IC50 (Insulin receptor): 747 nM
IC50 [18]: 250 nM

COc1cc(C2CCN(CC(N)=O)CC2)ccc1Nc1ncc2ccc(-c3ncccc3OC)n2n1
IC50 [3]: 1060 nM
IC50 (Insulin receptor): > 10000 nM

COc1cc(C2CCN(CC(N)=O)CC2)ccc1Nc1ncc2ccc(-c3ccncc3OC)n2n1
IC50 [3]: 9 nM
IC50 (Insulin receptor): 410 nM
IC50 [18]: 150 nM

COc1cc(C2CCN(CC(N)=O)CC2)ccc1Nc1ncc2ccc(-c3ccccc3N(C)S(C)(=O)=O)n2n1
IC50 [3]: 15 nM
half-life at 0.5 µM [6]: < 5 min
half-life at 0.5 µM [14]: < 5 min
IC50 (Insulin receptor): 552 nM
IC50 [18]: 80 nM
half-life at 0.5 µM [19]: < 5 min
half-life at 0.5 µM [25]: 29 min

COc1cc(C2CCN(CC(N)=O)CC2)ccc1Nc1ncc2c(O)cc(-c3ccccc3N(C)S(C)(=O)=O)n2n1
IC50 [3]: 11 nM
half-life at 0.5 µM [6]: < 5 min
half-life at 0.5 µM [14]: < 5 min
half-life at 0.5 µM [19]: < 5 min
half-life at 0.5 µM [25]: < 5 min

COc1cc(C2CCN(CC(N)=O)CC2)ccc1Nc1ncc2c(C)cc(-c3ccccc3N(C)S(C)(=O)=O)n2n1
IC50 [3]: 6 nM
clearance [5]: ≤ 4 mL/min/kg
half-life at 0.5 µM [6]: 18 min
half-life [8]: > 120 min
bioavailability [12]: 24%
half-life at 0.5 µM [14]: 31 min
IC50 [18]: 70 nM
half-life at 0.5 µM [19]: 6 min
inhibition in vivo at 30 mg/kg (Mus musculus [20]): < 75%
half-life at 0.5 µM [25]: > 40 min

COc1cc(C2CCN(CC(N)=O)CC2)ccc1Nc1ncc2c(Cl)cc(-c3ccccc3N(C)S(C)(=O)=O)n2n1
IC50 [3]: 4.7 nM
clearance [5]: ≤ 4 mL/min/kg
half-life at 0.5 µM [6]: 37 min
half-life [8]: > 120 min
bioavailability [12]: 41%
half-life at 0.5 µM [14]: > 40 min
IC50 [18]: 70 nM
half-life at 0.5 µM [19]: 15 min
inhibition in vivo at 30 mg/kg (Mus musculus [20]): < 75%
half-life at 0.5 µM [25]: > 40 min

COc1c(Nc2ncc3ccc(-c4ccccc4N(C)S(C)(=O)=O)n3n2)ccc(N2CCN(C[C@H](C)O)CC2)c1F
IC50 [3]: 56 nM

COc1cc(N2CCN(C[C@H](C)O)CC2)c(F)cc1Nc1ncc2ccc(-c3ccccc3N(C)S(C)(=O)=O)n2n1
IC50 [3]: 14 nM
IC50 [18]: 200 nM
